Our source for the IC50 values is US20260226048A1, “MULTI-CYCLIC IRAK AND FLT3 INHIBITING COMPOUNDS AND USES THEREOF” (CHILDREN'S HOSPITAL MEDICAL CENTER, priority 2023, published 2026).

One assay has as its target T1, FLT3 (Homo sapiens, UniProt P36888).
T1 sequence (P36888 27-993): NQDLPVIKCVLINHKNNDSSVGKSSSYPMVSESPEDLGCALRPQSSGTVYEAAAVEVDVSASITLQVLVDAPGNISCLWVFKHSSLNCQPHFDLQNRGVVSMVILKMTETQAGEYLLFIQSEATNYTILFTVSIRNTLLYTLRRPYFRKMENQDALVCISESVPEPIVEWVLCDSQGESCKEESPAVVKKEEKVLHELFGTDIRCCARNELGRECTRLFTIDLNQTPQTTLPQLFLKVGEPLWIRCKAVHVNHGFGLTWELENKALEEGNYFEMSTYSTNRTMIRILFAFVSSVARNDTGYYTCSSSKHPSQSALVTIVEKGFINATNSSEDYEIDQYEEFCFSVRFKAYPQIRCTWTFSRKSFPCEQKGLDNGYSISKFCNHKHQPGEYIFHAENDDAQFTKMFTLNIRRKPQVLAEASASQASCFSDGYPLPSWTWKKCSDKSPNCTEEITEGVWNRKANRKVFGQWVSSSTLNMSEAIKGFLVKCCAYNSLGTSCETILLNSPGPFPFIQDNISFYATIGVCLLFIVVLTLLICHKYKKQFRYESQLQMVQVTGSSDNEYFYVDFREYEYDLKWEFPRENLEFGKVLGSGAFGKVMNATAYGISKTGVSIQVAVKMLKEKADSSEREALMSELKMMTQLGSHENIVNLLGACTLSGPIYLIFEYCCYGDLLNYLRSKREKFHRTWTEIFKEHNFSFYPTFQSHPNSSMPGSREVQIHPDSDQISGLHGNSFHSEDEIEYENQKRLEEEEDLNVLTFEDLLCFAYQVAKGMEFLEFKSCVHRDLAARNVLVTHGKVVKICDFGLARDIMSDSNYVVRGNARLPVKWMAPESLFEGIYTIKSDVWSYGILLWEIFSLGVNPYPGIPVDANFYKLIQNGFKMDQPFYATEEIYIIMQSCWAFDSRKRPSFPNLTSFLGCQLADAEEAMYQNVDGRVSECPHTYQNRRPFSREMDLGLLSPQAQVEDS
The assay is described as follows: Reaction Biology NanoBRET target engagement assay in HEK-293 cells, FLT3. The conditions noted are these: live HEK-293 cells transfected with Kinase-NanoLuc fusion, 1 hour. Type of assay: cell-based. An excerpt:
The NanoBRET assay measures kinase engagement in real time in the context of the intact cell. Unlike the previously described biochemical kinase assay methodology in Example 33, the NanoBRET assay measures the binding and activity characteristics under equilibrium conditions using full-length kinases in the presence of cellular concentrations of ATP in live, uncompromised cells. As such, the assay provides a more relevant assessment of kinase potency and selectivity that would be expected to be observed in the native cellular environment, where potency is often considerably lower than that observed in the isolated biochemical assays (Vasta, J. D. et al., (2018) Cell Chem. Biol. 25, 206-214). The assay uses a Kinase-NanoLuc® fusion vector expressing a kinase protein to which a luciferase tag has been added, a cell-permeant fluorescent NanoBRET™ tracer, a NanoLuc® substrate, and an extracellular NanoLuc® inhibitor. Upon expression of the luciferase-tagged kinase, cells will produce a strong BRET signal only in the presence of the NanoBRET™ tracer. The extracellular NanoLuc® inhibitor ensures that the BRET signal observed emanates only from live cells. Because the BRET signal has tight distance constraints, addition of the test compound will decrease the BRET signal if the compound competes with the NanoBRET™ tracer for binding to the kinase domain. Under the appropriate tracer conditions established by the manufacturer, quantitative intracellular affinity and relative potency can then be determined using Mass Action model equations.
HEK-293 cells were purchased from ATCC. FuGENEHD Transfection Reagent, Kinase-NanoLucfusion plasmids, Transfection Carrier DNA, NanoBRETTracers and dilution buffer, NanoBRETNano-Glo Substrate, Extracellular NanoLucInhibitor were obtained from Promega.
Assays were conducted following Promega assay protocol with some modifications. HEK-293 Cells were transiently transfected with Kinase-NanoLucFusion Vector DNA by FuGENEHD Transfection Reagent. Testing compounds were delivered into 384 well assay plate by Echo 550 (LabcyteInc, Sunnyvale, CA). Transfected cells were harvested and mixed with NanoBRETTracer Reagent and dispensed into 384 well plates and incubated at 37° C. in 5% C02 cell culture incubator for 1 hour. The NanoBRETNano-Glo Substrate plus Extracellular NanoLucInhibitor Solution were added into the wells of the assay plate and incubated for 2-3 minutes at room temperature. The donor emission wavelength (460 nm) and acceptor emission wavelength (600 nm) were measured in the EnVisionplate reader. The BRET Ratios were calculated. BRET Ratio=[(Acceptor sample÷Donor sample)−(Acceptor no-tracer control÷Donor no-tracer control)]. The IC50 values of compounds were calculated with Prism GraphPad program.
• 1). Cultivate HEK-293 cells (70-80% confluence) appropriately prior to assay. Trypsinize and collect HEK-293 cells. • 2). Prepare lipid: DNA complexes as follows: • a. Prepare a 10 μg/ml solution of DNA in Opti-MEM without serum that consists of the following ratios of carrier DNA and DNA encoding NanoLuc® fusion. 9.0 μg/mL of Transfection Carrier DNA, 1.0 μg/mL of NanoLuc fusion vector DNA and 1 mL of Opti-MEM without phenol red. Mix thoroughly. • b. Add 30 μl of FuGENE HD Transfection Reagent into each milliliter of DNA mixture to form lipid: DNA complex. • c. Mix by inversion 10 times. • d. Incubate at ambient temperature for 20 minutes to allow complexes to form. • 3). In a sterile, conical tube, mix 1 part of lipid:DNA complex with 20 parts of HEK-293 cells in suspension. Mix gently by inversion 5 times. • 4). Dispense cells+lipid:DNA complex into a sterile tissue culture dish and incubate for 22-24 hours.
Each test compound is delivered from the compound source plate to the wells of 384-well white NBS plate by Echo 550.
3. Preparation of Cells with NanoBRET™ Tracer Reagent • 1). […]
Background: Bioluminescence resonance energy transfer reports proximity on the nanometre scale.

Another assay concerns MOLM14 F691L cells. The assay is described as follows: MOLM14 F691L cell viability assay (Cell Titer Glo). The assay is classed as cell-based. The following applies: Homo sapiens, MOLM-14; cell viability, Cell Titer Glo, 48 hours; read-out: MOLM14 F691L IC50. In outline:
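MOLM14 cells with FLT3 D835Y or F691L kinase-domain resistance mutations seeded at 1000 cells/well and exposed to compound for 48 h under standard incubator conditions. Viability read by CellTiter-Glo luminescence after 15 min at room temperature.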

Regarding `CC(O)(c1ccc2ncc(-c3ccnc(N[C@@H]4CCCNC4)n3)n2c1)C(F)(F)F` (single isomer, unassigned) [Compound 22a], the IC50 (as a rule, the concentration needed to halve the response being measured) on FLT3 was determined as 38 nM.

As for `CC(O)(c1ccc2ncc(-c3ccnc(N[C@@H]4CCCNC4)n3)n2c1)C(F)(F)F` (single isomer, unassigned) [Compound 23a], on FLT3, the IC50 amounted to 3 nM.

`CC(O)(c1ccc2ncc(-c3ccnc(N[C@H]4CNCC[C@@H]4F)n3)n2c1)C(F)(F)F` (single isomer, unassigned) [Compound 25a] showed an IC50 at FLT3 of 40 nM.

Regarding `CC(O)(c1ccc2ncc(-c3cncc(N[C@@H]4CCCNC4)n3)n2c1)C(F)(F)F` (single isomer, unassigned) [Compound 28a], 2960 nM corresponded to half-maximal inhibition against FLT3 (IC50).

In turn, `CC(O)(c1ccc2ncc(-c3cncc(N[C@H]4CNCC[C@@H]4F)n3)n2c1)C(F)(F)F` (single isomer, unassigned) [Compound 31a] registered an IC50 against FLT3 of 1810 nM.

`COc1cc2ncc(-c3nc(N[C@H]4CNCC[C@@H]4F)ncc3F)n2nc1C1CC1` [Compound 1a, 4-(6-cyclopropyl-7-methoxyimidazo[1,2-b]pyridazin-3-yl)-5-fluoro-N-((3S,4S)-4-fluoropiperidin-3-yl)pyrimidin-2-amine]: the IC50 is 6 nM in the assay with MOLM14 F691L cells and 1 nM at FLT3.

On to `FC(F)COc1cc2ncc(-c3ccnc(N[C@H]4CNCC[C@@H]4F)n3)n2nc1C1CC1` [Compound 4a, 4-(6-cyclopropyl-7-(2,2-difluoroethoxy)imidazo[1,2-b]pyridazin-3-yl)-N-((3 S,4S)-4-fluoropiperidin-3-yl)pyrimidin-2-amine], for which the IC50 in the assay with MOLM14 F691L cells was 36 nM; against FLT3, 4 nM.

As for `F[C@H]1CCNC[C@@H]1Nc1nccc(-c2cnc3cc(OC4CC4)c(C4CC4)nn23)n1` [Compound 12a, 4-(7-cyclopropoxy-6-cyclopropylimidazo[1,2-b]pyridazin-3-yl)-N-((3S,4S)-4-fluoropiperidin-3-yl)pyrimidin-2-amine], the IC50 is 101 nM in the assay with MOLM14 F691L cells and less than 0.5 nM against FLT3.

On to `COc1cc2ncc(-c3nc(N[C@H]4CNCC[C@@H]4F)ncc3F)n2nc1C(C)(C)O` [Compound 45a, 2-(3-(5-fluoro-2-(((3S,4S)-4-fluoropiperidin-3-yl)amino)pyrimidin-4-yl)-7-methoxyimidazo[1,2-b]pyridazin-6-yl)propan-2-ol], for which the IC50 was found to be 90 nM in the assay with MOLM14 F691L cells and 44 nM against FLT3.

On to `CC(C)(O)c1ccc2ncc(-c3nc(N[C@H]4CNCC[C@@H]4F)ncc3F)n2c1` [Compound 46a, 2-(3-(5-fluoro-2-(((3S,4S)-4-fluoropiperidin-3-yl)amino)pyrimidin-4-yl)imidazo[1,2-a]pyridin-6-yl)propan-2-ol], for which the results for the IC50 with MOLM14 F691L cells and at FLT3 were 252 nM and 102 nM, respectively.

On to `CC(C)(O)c1ccc2ncc(-c3nc(N[C@@H]4CCCNC4)ncc3F)n2c1` [Compound 48a, (R)-2-(3-(5-fluoro-2-(piperidin-3-ylamino)pyrimidin-4-yl)imidazo[1,2-a]pyridin-6-yl)propan-2-ol], for which 141 nM corresponded to half-maximal inhibition on FLT3 (IC50).

`COc1cc2ncc(-c3nc(N[C@H]4CNCC[C@@H]4F)ncc3F)n2nc1C1CC(F)(F)C1` [Compound 49a, 4-(6-(3,3-difluorocyclobutyl)-7-methoxyimidazo[1,2-b]pyridazin-3-yl)-5-fluoro-N-((3S,4S)-4-fluoropiperidin-3-yl)pyrimidin-2-amine] returned an IC50 against FLT3 of less than 0.5 nM.

Consider `COc1cc2ncc(-c3nc(N[C@@H]4CCCNC4)ncc3F)n2nc1C1CC2(CCC2)C1` [Compound 59a, (R)-5-fluoro-4-(7-methoxy-6-(spiro[3.3]heptan-2-yl)imidazo[1,2-b]pyridazin-3-yl)-N-(piperidin-3-yl)pyrimidin-2-amine], for which the IC50 in the assay on MOLM14 F691L cells is 45 nM.

`COc1cc2ncc(-c3nc(N[C@H]4CNCC[C@@H]4F)ncc3F)n2nc1C1CC2(CCC2)C1` [Compound 60a, 5-fluoro-N-((3S,4S)-4-fluoropiperidin-3-yl)-4-(7-methoxy-6-(spiro[3.3]heptan-2-yl)imidazo[1,2-b]pyridazin-3-yl)pyrimidin-2-amine]: the IC50 in the assay on MOLM14 F691L cells stood at 90 nM.

As to `COc1cc2ncc(-c3ccnc(N[C@H]4CNCC[C@@H]4F)n3)n2nc1C1CCC1` [Compound 79a, 4-(6-cyclobutyl-7-methoxyimidazo[1,2-b]pyridazin-3-yl)-N-((3S,4S)-4-fluoropiperidin-3-yl)pyrimidin-2-amine], the results for the IC50 with MOLM14 F691L cells and against FLT3 were 101 nM and less than 0.5 nM, respectively.

As to `COc1cc2ncc(-c3nc(N[C@H]4CNCC[C@@H]4F)ncc3F)n2nc1C1COC1` [Compound 92a, 5-fluoro-N-((3S,4S)-4-fluoropiperidin-3-yl)-4-(7-methoxy-6-(oxetan-3-yl)imidazo[1,2-b]pyridazin-3-yl)pyrimidin-2-amine], the IC50 in the assay with MOLM14 F691L cells came out at 40 nM; against FLT3 it was 4 nM.

For `CC(C)(O)c1cn2c(-c3nc(N[C@H]4CNCC[C@@H]4F)ncc3F)cnc2cn1` [Compound 100a, 2-(3-(5-fluoro-2-(((3S,4S)-4-fluoropiperidin-3-yl)amino)pyrimidin-4-yl)imidazo[1,2-a]pyrazin-6-yl)propan-2-ol], the IC50 with MOLM14 F691L cells was determined as 603 nM; against FLT3, 4250 nM.

Turning to `COc1cc2ncc(-c3nc(N[C@H]4CNC[C@@H]4F)ncc3F)n2nc1N1CCCS1(=O)=O` [Compound 111a, 2-(3-(5-fluoro-2-(((3S,4S)-4-fluoropyrrolidin-3-yl)amino)pyrimidin-4-yl)-7-methoxyimidazo[1,2-b]pyridazin-6-yl)isothiazolidine 1,1-dioxide], the IC50 in the assay on MOLM14 F691L cells worked out at 113 nM; at FLT3 it was 77 nM.

`COc1cc2ncc(-c3nc(N[C@H]4CNCC[C@@H]4F)ncc3F)n2nc1N1CCCS1(=O)=O` [Compound 112a, 2-(3-(5-fluoro-2-(((3S,4S)-4-fluoropiperidin-3-yl)amino)pyrimidin-4-yl)-7-methoxyimidazo[1,2-b]pyridazin-6-yl)isothiazolidine 1,1-dioxide]: the figures for the IC50 with MOLM14 F691L cells and at FLT3 were 23 nM and less than 0.5 nM, respectively.
